# Patent US8044198B2, “Sirtuin modulating compounds” (Sirtris Pharmaceuticals, Inc., priority 2005, dated 2011)
# Target: T1, SIRT1 (Homo sapiens, UniProt Q96EB6)
# T1 sequence (Q96EB6 1-747): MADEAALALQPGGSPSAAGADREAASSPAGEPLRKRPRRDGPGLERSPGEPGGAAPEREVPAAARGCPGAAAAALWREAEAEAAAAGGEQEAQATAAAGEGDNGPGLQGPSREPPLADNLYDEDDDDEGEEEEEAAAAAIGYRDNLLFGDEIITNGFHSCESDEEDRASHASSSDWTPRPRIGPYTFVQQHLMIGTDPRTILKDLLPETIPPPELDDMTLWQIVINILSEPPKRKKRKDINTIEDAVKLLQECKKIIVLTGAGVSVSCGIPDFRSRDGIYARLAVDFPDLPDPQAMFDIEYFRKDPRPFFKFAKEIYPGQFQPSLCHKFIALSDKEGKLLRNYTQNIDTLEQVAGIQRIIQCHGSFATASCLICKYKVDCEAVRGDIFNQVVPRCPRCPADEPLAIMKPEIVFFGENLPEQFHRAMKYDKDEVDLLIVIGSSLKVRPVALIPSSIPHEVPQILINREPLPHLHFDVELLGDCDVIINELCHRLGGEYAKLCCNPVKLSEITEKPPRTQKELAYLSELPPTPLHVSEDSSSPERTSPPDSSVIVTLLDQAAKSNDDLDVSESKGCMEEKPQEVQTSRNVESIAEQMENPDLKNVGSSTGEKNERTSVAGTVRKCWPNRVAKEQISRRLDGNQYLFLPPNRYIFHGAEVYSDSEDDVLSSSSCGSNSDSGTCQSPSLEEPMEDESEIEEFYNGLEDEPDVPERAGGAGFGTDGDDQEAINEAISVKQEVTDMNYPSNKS
# Assay: SIRT1 mass spectrometry (MS) based deacetylation assay; as to FOLD ACT. MS: test concentration or dose not given here
# Assay type: biochemical
# Details: for EC50: SIRT1 activation, mass spectrometry assay, read-out: ED50 MS ASSAY; for FOLD ACT. MS: fold activation of SIRT1, mass spectrometry assay
Structure (SMILES),EC50,FOLD ACT. MS
O=C(Nc1cccc(-c2nc3ccncc3s2)c1)c1ccc2ccccc2n1 [Compound 307],< 5 µM,A (A (Fold activation >250%))
CN(C)c1cccc(C(=O)Nc2cccc(-c3nc4cnccc4o3)c2)c1 [Compound 311],5 to 50 µM,B (B (Fold Activation <250%))
COc1cc(C(=O)Nc2ccccc2-c2nc3ccccc3n2C)cc(OC)c1OC [Compound 313],5 to 50 µM,B (B (Fold Activation <250%))
COc1ccc(C(=O)Nc2ccccc2-c2nc3ccccc3n2C)cc1OC [Compound 314],5 to 50 µM,B (B (Fold Activation <250%))
COc1ccc(C(=O)Nc2ccccc2-c2nc3cnccc3s2)c(OC)c1 [Compound 317],< 5 µM,B (B (Fold Activation <250%))
COc1cc(OC)cc(C(=O)Nc2ccccc2-c2nc3cnccc3s2)c1 [Compound 318],5 to 50 µM,B (B (Fold Activation <250%))
COc1cc(C(=O)Nc2ccccc2-c2nc3cnccc3s2)cc(OC)c1OC [Compound 319],< 5 µM,B (B (Fold Activation <250%))
CN(C)c1ccc(C(=O)Nc2ccccc2-c2nc3cnccc3s2)cc1 [Compound 320],< 5 µM,B (B (Fold Activation <250%))
CN(C)c1cccc(C(=O)Nc2ccccc2-c2nc3cnccc3s2)c1 [Compound 321],< 5 µM,B (B (Fold Activation <250%))
COc1cc(OC)cc(C(=O)Nc2ccc(-c3nc4cnccc4s3)cc2)c1 [Compound 323],5 to 50 µM,B (B (Fold Activation <250%))
COc1ccc(C(=O)Nc2ccccc2-c2cn3c(CN4CCNCC4)csc3n2)c(OC)c1 [Compound 326],5 to 50 µM,B (B (Fold Activation <250%))
CN(C)c1cccc(C(=O)Nc2ccccc2-c2cn3c(CN4CCNCC4)csc3n2)c1 [Compound 327],5 to 50 µM,A (A (Fold activation >250%))
O=C(Nc1ccccc1-c1cn2c(CN3CCNCC3)csc2n1)c1ccccc1 [Compound 328],51 to 100 µM,A (A (Fold activation >250%))
O=C(Nc1ccccc1-c1cn2c(CN3CCNCC3)csc2n1)c1ccc2c(c1)OCO2 [Compound 329],5 to 50 µM,A (A (Fold activation >250%))
N#Cc1cccc(C(=O)Nc2ccccc2-c2cn3c(CN4CCNCC4)csc3n2)c1 [Compound 330],5 to 50 µM,A (A (Fold activation >250%))
COc1ccc(C(=O)Nc2cccc(-c3cccnc3)c2)c(OC)c1 [Compound 331],5 to 50 µM,B (B (Fold Activation <250%))
COc1ccc(C(=O)Nc2cccc(-c3cccnc3)c2)cc1OC [Compound 332],5 to 50 µM,B (B (Fold Activation <250%))
COc1cc(C(=O)Nc2cccc(-c3cccnc3)c2)cc(OC)c1OC [Compound 333],5 to 50 µM,B (B (Fold Activation <250%))
COc1ccc(C(=O)Nc2ccccc2-c2cccs2)c(OC)c1 [Compound 334],5 to 50 µM,B (B (Fold Activation <250%))
COc1ccc(C(=O)Nc2ccccc2-c2cccs2)cc1OC [Compound 335],5 to 50 µM,B (B (Fold Activation <250%))
O=C(Nc1ccccc1-c1cn2c(CN3CCNCC3)csc2n1)c1ccc2occc2c1 [Compound 338],5 to 50 µM,A (A (Fold activation >250%))
COc1cc(C(=O)Nc2ccc(-c3nc4ccncc4o3)cc2)cc(OC)c1OC [Compound 341],< 5 µM,B (B (Fold Activation <250%))

Structure (SMILES),EC50,FOLD ACT. MS
COc1ccc(C(=O)Nc2cccc(-c3nc4cnccc4o3)c2)c(OC)c1OC [Compound 343],5 to 50 µM,B (B (Fold Activation <250%))
COc1ccc(C(=O)Nc2cccc(-c3nc4cnccc4o3)c2)cc1OC [Compound 344],< 5 µM,B (B (Fold Activation <250%))
COc1cc(C(=O)Nc2ccc(-c3nc4cnccc4o3)cc2)cc(OC)c1OC [Compound 347],< 5 µM,B (B (Fold Activation <250%))
COc1ccc(C(=O)Nc2ccccc2-c2nc3ccccn3c2CN(C)C)cc1OC [Compound 350],51 to 100 µM,B (B (Fold Activation <250%))
COc1cc(C(=O)Nc2ccccc2-c2nc3ccccn3c2CN(C)C)cc(OC)c1OC [Compound 351],5 to 50 µM,B (B (Fold Activation <250%))
COc1cc(C(=O)Nc2ccccc2-c2nc3ccccn3c2CN2CCNCC2)cc(OC)c1OC [Compound 362],51 to 100 µM,B (B (Fold Activation <250%))
COc1ccc(C(=O)Nc2ccccc2-c2nc3ccccn3c2CN2CCNCC2)cc1OC [Compound 364],> 150 µM,A (A (Fold activation >250%))
Cc1nn(-c2ccccc2)nc1C(=O)Nc1ccccc1-c1nc2ccncc2s1 [Compound 390],5 to 50 µM,B (B (Fold Activation <250%))
O=C(Nc1ccccc1-c1nc2ccncc2s1)c1cnccn1 [Compound 391],5 to 50 µM,B (B (Fold Activation <250%))
O=C(Nc1ccccc1-c1nc2ccncc2s1)c1ccc(Oc2ccccc2)nc1 [Compound 392],5 to 50 µM,B (B (Fold Activation <250%))
CC(CC(=O)Nc1cccc(-c2nc3ccncc3s2)c1)Oc1ccccc1 (stereo not shown) [Compound 396],5 to 50 µM,B (B (Fold Activation <250%))
CN(C)c1cccc2c(S(=O)(=O)Nc3cccc(-c4nc5ccncc5s4)c3)cccc12 [Compound 398],5 to 50 µM,B (B (Fold Activation <250%))
O=c1[nH]c2ccc(S(=O)(=O)Nc3cccc(-c4nc5ccncc5s4)c3)cc2o1 [Compound 399],5 to 50 µM,B (B (Fold Activation <250%))
COc1ccc(C(=O)Nc2cccc(-c3nc4cnccc4s3)c2)c(OC)c1OC [Compound 401],5 to 50 µM,B (B (Fold Activation <250%))
CN(C)c1cccc(C(=O)Nc2cccc(-c3nc4cnccc4s3)c2)c1 [Compound 402],< 5 µM,B (B (Fold Activation <250%))
CN(C)c1ccc(C(=O)Nc2cccc(-c3nc4cnccc4s3)c2)cc1 [Compound 403],< 5 µM,B (B (Fold Activation <250%))
COc1cc(OC)cc(C(=O)Nc2ccccc2-c2nc3cnccc3o2)c1 [Compound 404],< 5 µM,B (B (Fold Activation <250%))
COc1cc(C(=O)Nc2ccccc2-c2nc3cnccc3o2)cc(OC)c1OC [Compound 405],< 5 µM,B (B (Fold Activation <250%))
CN(C)c1cccc(C(=O)Nc2ccccc2-c2nc3cnccc3o2)c1 [Compound 406],< 5 µM,B (B (Fold Activation <250%))
CN(C)c1ccc(C(=O)Nc2ccccc2-c2nc3cnccc3o2)cc1 [Compound 407],< 5 µM,B (B (Fold Activation <250%))
CN(C)c1cccc(C(=O)Nc2ccc(-c3nc4ccncc4o3)cc2)c1 [Compound 408],51 to 100 µM,B (B (Fold Activation <250%))
COc1ccc(C(=O)Nc2ccccc2-c2nc3cnccc3s2)c(OC)c1OC [Compound 411],5 to 50 µM,B (B (Fold Activation <250%))
